Test results taken from publication PMC6892276 (European Journal of Pharmaceutical Sciences, 2019).

How the values were obtained:
[1] = Protein binding in rCYP (Rapid Equilibrium Dialysis); assay type: in vitro ADME; conditions: human, control rCYP 100 pmol/ml, dialysis 4 h at 37 °C, read-out: fuCYP (fraction unbound in rCYP)
Experimental: Samples were removed, matrix matched and quenched with methanol containing internal standard; further processing is as described in Section 2.6.
The fraction unbound (fu) in HLM/rCYP was calculated using Eq. (5).(5) fu=1/1+1/PARreceiver/PARdonor−1 where PAR = Peak Area Ratio of analyte/internal standard.

[2] = test system: MOLM-13 (human FLT3-ITD positive AML); parameters: method as in Bavetsias et al., 2012; conditions: ref Bavetsias et al., 2012; cited from earlier work
[3] = CLint in cryopreserved rat hepatocyte suspensions; assay type: in vitro ADME; conditions: Sprague Dawley, pH 7.4, female
Experimental: (§1) Cells were stored in the vapour phase of liquid nitrogen and thawed as per the supplier's instructions (rapid thawing at 37 °C, followed by centrifugation at 50 ×g for 5 min in thawing medium). Hepatocytes were re-suspended in a small volume of incubation medium (WME buffered with HEPES (final concentration 24 mM) adjusted to pH 7.4). Cell density was estimated using a haemocytometer and light microscope and viability determined according to the trypan blue exclusion method; cells were subsequently diluted to the required concentration in incubation medium. […]
(§2) For the purpose of CLint determination, samples were analysed using an Agilent 1290 Infinity ultra high-performance liquid chromatography (UHPLC) system coupled to an Agilent 6520 Quadrupole Time-of-flight mass spectrometer (Agilent Technologies, Stockport, UK). […]
(§3) In vitro data (parent compound LC-MS response) was fitted to a non-linear single exponential model using the software GraphPad Prism (v6.07, GraphPad Software, Inc., La Jolla, USA) to determine the elimination rate constant (k). CLint in hepatocytes and liver microsomes was calculated using Eqs. […]

[4] = CLint in cryopreserved mouse hepatocyte suspensions; assay type: in vitro ADME; conditions: ICR/CD-1, cryopreserved hepatocyte suspensions, pH 7.4, female
Experimental: as §1, §2, §3

CYP3A4 = test system: CYP3A4; parameters: method as in Bavetsias et al., 2012; conditions: ref Bavetsias et al., 2012; read-out: CYP3A4 inhibition IC50; cited from earlier work
[5] = CLint in cryopreserved human hepatocyte suspensions; assay type: in vitro ADME; conditions: both sexes, pH 7.4, mixed sex
Experimental: as §1, §2, §3

[6] = test system: MV4-11 (human FLT3-ITD positive AML); parameters: method as in Bavetsias et al., 2012; conditions: ref Bavetsias et al., 2012; cited from earlier work
CYP1A2 = test system: CYP1A2; parameters: method as in Bavetsias et al., 2012; conditions: ref Bavetsias et al., 2012; read-out: CYP1A2 inhibition IC50; cited from earlier work
MV4-11 xenograft = test system: MV4-11 xenograft; parameters: method as in Bavetsias et al., 2012; conditions: MV4-11 xenograft mouse model; ref Bavetsias et al., 2012; cited from earlier work
hERG = test system: hERG; parameters: method as in Bavetsias et al., 2012; conditions: ref Bavetsias et al., 2012; read-out: hERG blockade IC50; cited from earlier work
[7] = test system: histone H-3 and STAT5 phosphorylation; parameters: method as in Bavetsias et al., 2012; conditions: p.o. 50 and 100 mg/kg b.i.d., 4-day mouse PK/PD study; ref Bavetsias et al., 2012; cited from earlier work
[8] = parameters: method as in Bavetsias et al., 2012; conditions: mouse and rat; ref Bavetsias et al., 2012; cited from earlier work
[9] = CLint in dog liver microsomes; assay type: in vitro ADME; conditions: Beagle, 1 mg/ml, NADPH
Experimental: (§4) All incubations of subcellular fractions and recombinant enzymes were conducted at 37 °C and 800 rpm using a Hamilton Microlab Star liquid handling workstation (Hamilton Robotics (Bonaduz, Switzerland)).
(§5) Prior to initiation of the reaction by the addition of NADPH (final concentration 1 mM), an aliquot was removed from each incubation and quenched in ice cold methanol containing internal standard (referred to as T0). NADPH was subsequently added to this solution for matrix matching. The remaining reaction (with addition of NADPH) was allowed to proceed for 60 min. At 0.5, 5, 15, 30 and 60 min aliquots were sampled and quenched as above. Incubations were conducted in singlicate; control incubations (substituting PBS for NADPH) were conducted simultaneously.
as §2, §3

[10] = CLint in cryopreserved minipig hepatocyte suspensions; assay type: in vitro ADME; conditions: Gottingen
Experimental: as §1, §2, §3

[11] = CLint in mouse liver microsomes; assay type: in vitro ADME; conditions: ICR/CD-1, liver microsomes, female, 1 mg/ml, NADPH
Experimental: as §4, §5, §2, §3

Caco-2 = test system: Caco-2; parameters: method as in Bavetsias et al., 2012; conditions: ref Bavetsias et al., 2012, cited from earlier work

## Cc1nn(C)cc1-c1nc2c(N3CCN(Cc4ccc(Cl)cc4)CC3)c(Cl)cnc2[nH]1 [CCT241736, 6-Chloro-7-(4-(4-chlorobenzyl)piperazin-1-yl)-2-(1,3-dimethyl-1Hpyrazol-4-yl)-3H-imidazo[4,5-b] pyridine]
[1]
  fraction unbound at 4 h, 1 μM: 0.0094
[2]
  anti-proliferative activity: anti-proliferative activity
[3]
  hepatocyte CLint at 1 μM: 10 µL/min/1e6 cells
[4]
  hepatocyte CLint at 1 μM: 91 µL/min/1e6 cells
CYP3A4
  IC50: > 10 µM
[5]
  hepatocyte CLint at 1 μM: < 1 µL/min/1e6 cells
[6]
  anti-proliferative activity: anti-proliferative activity
CYP1A2
  IC50: > 10 µM
MV4-11 xenograft
  inhibition of tumour growth: strong inhibition of tumour growth
hERG
  IC50: > 25 µM
[7]
  biomarker modulation (histone H-3 and STAT5 phosphorylation): biomarker modulation
[8]
  oral bioavailability: 79–100%
[9]; female
  microsomal CLint at 1 μM: 9.5 ± 2.2 µL/min/mg
[9]; male
  microsomal CLint at 1 μM: 7.4 ± 1.4 µL/min/mg
[10]; pH 7.4, female
  hepatocyte CLint at 1 μM: 3.4 µL/min/1e6 cells
[10]; pH 7.4, male
  hepatocyte CLint at 1 μM: 7 µL/min/1e6 cells
[11]
  microsomal CLint at 1 μM: 53 ± 4.1 µL/min/mg
Caco-2; Caco-2
  efflux: no evidence of efflux
Caco-2
  Caco-2 permeability: 1.86e-05 cm/s
